One block for each compound: values may come before it. Calls of active or inactive are those of the source. The rule behind the calls is not given here.
Key:
[1] = target: Cyclin-dependent kinase 8/19 (Homo sapiens, UniProt P49336+Q9BWU1); settings: ST-2
Description: Inhibition of CDK8/CDK19 in ST2 cells by alkaline phosphatase activity assay

Myc-CaP [2] = test: Antiproliferative activity against murine castration-resistant Myc-CaP cells at 1 uM assessed as growth inhibition relative to control; format: functional; settings: Mus musculus
Myc-CaP [3] = test: Antiproliferative activity against murine castration-resistant Myc-CaP cells at 1 uM assessed as growth inhibition in presence of 5 uM enzalutamide relative to control; format: functional; settings: Mus musculus
Myc-CaP [4] = test: Inhibition of colony formation in murine castration-resistant Myc-CaP cells at 1 uM by clonogenic assay; format: functional; settings: Mus musculus
Myc-CaP [5] = test: Inhibition of colony formation in murine castration-resistant Myc-CaP cells at 1 uM in presence of 5 uM enzalutamide by clonogenic assay relative to control; format: functional; settings: Mus musculus
CWR22R [6] = test: Antitumor activity against human 22Rv1 cells expressing AR-V7 xenografted in male nude mouse assessed as suppression of tumor growth at 133 mg/kg, administered once a day for 20 days; format: functional, organism-based
CWR22R [7] = test: Antitumor activity against human 22Rv1 cells expressing AR-V7 xenografted in male nude mouse assessed as suppression of tumor growth at 66 mg/kg, administered twice a day for 20 days; format: functional, organism-based
4T1 = test: Antitumor activity against murine 4T1 cells xenografted in mouse assessed as suppression of tumor volume at 50 mg/kg, po; format: functional, organism-based

Chain of Cyclin-dependent kinase 8/19 (P49336 whole entry, looked up): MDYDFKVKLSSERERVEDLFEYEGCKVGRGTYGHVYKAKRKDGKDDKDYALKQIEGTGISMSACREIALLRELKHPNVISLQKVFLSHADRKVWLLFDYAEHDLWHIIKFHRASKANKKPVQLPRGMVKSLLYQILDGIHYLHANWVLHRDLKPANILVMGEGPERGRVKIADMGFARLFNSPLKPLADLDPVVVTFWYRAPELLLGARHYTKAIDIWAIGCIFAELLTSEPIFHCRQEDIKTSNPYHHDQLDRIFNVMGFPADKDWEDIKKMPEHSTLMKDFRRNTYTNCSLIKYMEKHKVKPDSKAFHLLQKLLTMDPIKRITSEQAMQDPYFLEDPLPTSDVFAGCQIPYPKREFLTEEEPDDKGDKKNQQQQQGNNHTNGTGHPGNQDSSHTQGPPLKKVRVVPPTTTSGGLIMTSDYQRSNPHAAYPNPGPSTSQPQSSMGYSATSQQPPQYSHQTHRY
Chain of Cyclin-dependent kinase 8/19 (Q9BWU1 whole entry, looked up): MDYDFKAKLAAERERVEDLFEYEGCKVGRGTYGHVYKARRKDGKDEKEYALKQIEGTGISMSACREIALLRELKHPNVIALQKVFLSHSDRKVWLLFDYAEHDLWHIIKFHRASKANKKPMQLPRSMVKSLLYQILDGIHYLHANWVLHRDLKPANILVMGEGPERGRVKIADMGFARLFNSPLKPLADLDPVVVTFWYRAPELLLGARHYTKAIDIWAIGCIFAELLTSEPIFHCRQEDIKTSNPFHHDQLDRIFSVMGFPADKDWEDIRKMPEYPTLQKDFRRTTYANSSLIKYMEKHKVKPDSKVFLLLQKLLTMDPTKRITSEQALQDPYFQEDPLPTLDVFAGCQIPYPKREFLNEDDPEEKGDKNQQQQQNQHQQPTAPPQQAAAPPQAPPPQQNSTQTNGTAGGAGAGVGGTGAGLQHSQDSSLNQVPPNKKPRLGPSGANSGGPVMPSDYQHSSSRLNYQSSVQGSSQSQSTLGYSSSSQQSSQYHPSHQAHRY

- EC200 [1]: 88.1 nM
Compound: Cc1ccc(N2CCCN(c3ccnc4sc(C(N)=O)c(N)c34)CC2)cc1

- EC200 [1]: 54.2 nM
Compound: CNC(=O)c1ccc(N2CCCN(c3ccnc4sc(C(N)=O)c(N)c34)CC2)cc1

Compound: CN1CCN(C(=O)c2ccc3cc(CCNc4ncnc5ccc(C#N)cc45)ccc3c2)CC1 [SENEXIN B]
- Activity (Myc-CaP [2]): Active
- Activity (Myc-CaP [3]): Active
- inhibition (Myc-CaP [4]): Active
- inhibition (Myc-CaP [5]): Active
- Activity (CWR22R [6]): Active
- Activity (CWR22R [7]): Active
- Activity (4T1): Active

- EC200 [1]: 6.6 nM
Compound: CN(C)C(=O)Cc1ccc(N2CCCN(c3ccnc4sc(C(N)=O)c(N)c34)CC2)cc1

- EC200 [1]: 115 nM
Compound: COc1ccc(N2CCCN(c3ccnc4sc(C(N)=O)c(N)c34)CC2)cc1
